Source: patent US9644039B2, “Acid-degradable and bioerodible modified polyhydroxylated materials” (The Regents of the University of California, priority 2008, dated 2017)

Columns and labels:
[1] = tested on: B16 tumor; experiment: Chemotherapy of subcutaneous B16 tumor with DOX particles; format: in vivo, mice; conditions: injected after 3 days
Protocol: To determine the maximum in vivo tolerated dose for the particles, a varying concentration of doses of 0 (PBS), 20, 40, and 60 mg/kg DOX equivalents are injected intravenously. The weights and general health of the mice are monitored until the ninth day after injection. Based on weight loss, the maximum injection of particles tolerated in mice is calculated. Once determined, mice are implanted subcutaneously with a B16 tumor. After 3 days mice are injected with PBS, free DOX, Ac-DEX particles encapsulating DOX, pegylated-Ac-DEX particles, or Doxcil (a commercially available doxorubicin/liposome conjugate). Mice are monitored for tumor growth. Once the tumor reaches an average diameter of 1.5 cm, the mice are sacrificed.

[2] = tested on: MO5 tumor cells; experiment: Tumor prophylactic vaccination, MO5 tumor challenge; format: in vivo, Mice; conditions: immunized subcutaneously day 0, 200,000 MO5 tumor cells day 7
Protocol: In one embodiment, Ac-DEX particles will encapsulate OVA similar to (Example 9 with B3Z assay) and be used in a tumor prophylactic and treatment vaccination against cancer. MO5 is a B16 tumor cell line that expresses OVA (Falo et al. 1995, Targeting antigen into the phagocytic pathway in vivo induces protective tumour immunity. Nat Med 1:649-53). Mice are immunized subcutaneously with 2 mg of Ac-DEX particles with a 2.5 wt % loading of OVA (50 μg of OVA) in the left flank on day 0. Other groups include mice which are injected with either OVA, saline, or Ac-DEX particles encapsulating OVA and an immunostimulatory CpG stimulant. We have shown earlier that adding CpG with acid labile particles drastically increases the efficacy of treatment(Standley et al. 2007, Incorporation of CpG oligonucleotide ligand into protein-loaded particle vaccines promotes antigen-specific CD8 T-cell immunity. Bioconjug Chem 18:77-83). CpG can be either co-injected with the particles, or it can be encapsulated inside the particles. […]
After injection, the tumor growth is monitored by measuring two perpendicular axes using calipers. Tumor volume is then calculated using the equation, volume=[…], with the length being the longest diameter and the width being the shortest diameter of the two perpendicular measurements. […]

[3] = tested on: RAW macrophages; experiment: B3Z / LacZ MHC Class I antigen presentation assay; format: cell-based; conditions: APCs incubated with free or encapsulated ovalbumin
Protocol: The LacZ MHC Class I antigen presentation assay, as described by Sanderson, S.; Shastri, N. in Inter. Immun. 1994, 6, 369-376, is performed with degradable polymer particles made according to Example 3 with the modified hydroxylated polymers of Example 2 to test their ability to deliver proteins into APCs for Class I antigen presentation. This experiment uses the LacZ B3Z hybridoma, which is a CTL that recognizes the peptide sequence, […] (SEQ ID NO: 8), from ovalbumin, complexed with the MHC Class I molecule H-2K^b. This hybridoma produces β-galactosidase after encountering APCs that present […] as a Class I antigen, thus allowing Class I antigen presentation to be quantified by measuring β-galactosidase activity.
In order to assess the feasibility of using Ac-DEX based materials for vaccine applications, OVA-loaded Ac-DEX particles were incubated with RAW macrophages. […] 1×10^4 RAW macrophages were seeded overnight in a 96 well plate and subsequently incubated with OVA-containing Ac-DEX particles or free OVA. […] After six hours of incubation, Ac-DEX particles increased MHC class I presentation of the OVA-derived CD8^+ T-cell epitope, […], by a factor of 16 relative to free OVA (FIG. 15) measured by the B3Z assay (Karttunen, J.; Shastri, N., Proc. Natl. Acad. Sci. U.S.A. 1991, 88, 3972-6).

## COc1cccc2c1C(=O)c1c(O)c3c(c(O)c1C2=O)C[C@@](O)(C(=O)CO)C[C@@H]3O[C@H]1C[C@H](N)[C@H](O)[C@H](C)O1 [free Dox, doxorubicin]
[1]
  tumor growth (order of groups): fastest tumor growth followed by, free Dox, Ac-DEX particles, Doxcil and finally PEGylated Ac-DEX particles

## free ovalbumin: ovalbumin, model protein antigen, not encapsulated
[2]
  tumor onset, tumor growth and survival time: fastest tumor onset and tumor growth
[3]
  activation of CTLs (Class I antigen presentation): not able to activate CTLs
